Results published in the supplement of paper PMC4862054.

Assays:
Assay in all cases: drug sensitivity score (DSS), CellTiter-Glo (DSS (AUC-based score)); higher = stronger drug effect (viability inhibition or cytotoxicity); extreme values may be limits of the assay
Conditions in all cases: incubation time: 72 h
[1] = system: HCC1143
Procedure, shortened: (§1)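 A drug sensitivity score was derived from the area under each fitted dose-response curve. Breast cancer cells (20 µl suspension) were seeded onto compound in 384-well plates, using 5 concentrations 10-fold apart over a compound-specific 10,000-fold range, and incubated 72 h. Readouts were CellTox Green fluorescence and then CellTiter-Glo luminescence, with every plate normalised to 0.1 % DMSO and a positive kill control.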

[2] = system: MDA-MB-468
Procedure, shortened: as §1

[3] = system: BT-549
Procedure, shortened: as §1

[4] = system: MCF-10A
Procedure, shortened: as §1

[5] = system: MDA-MB-453
Procedure, shortened: as §1

[6] = system: MDA-MB-436
Procedure, shortened: as §1

[7] = system: MFM-223
Procedure, shortened: as §1

[8] = system: CAL-148
Procedure, shortened: as §1

[9] = system: HCC1937
Procedure, shortened: as §1

Row | Structure (SMILES) | drug sensitivity score [1] | drug sensitivity score [2] | drug sensitivity score [3] | drug sensitivity score [4] | drug sensitivity score [5] | drug sensitivity score [6] | drug sensitivity score [7] | drug sensitivity score [8] | drug sensitivity score [9]
1 | Cn1c(Nc2ccc(C(F)(F)F)cc2)nc2cc(Oc3ccnc(-c4ncc(C(F)(F)F)[nH]4)c3)ccc21 [RAF265] | 0 | 4.79 | 1.66 | 0 | 0 | 2.94 | 2.07 | 0 | 1.88
2 | C#Cc1cccc(Nc2ncnc3cc(OCCOC)c(OCCOC)cc23)c1 [Erlotinib] | 0 | 0 | 0 | 16.3 | 0 | 0.203 | 0 | 1.84 | 0
3 | N.N.[Cl][Pt][Cl] [Cisplatin] | 0 | 0 | 0 | 0 | 0 | 0 | 0 | 0 | 0
4 | COc1cc2ncnc(Nc3ccc(F)c(Cl)c3)c2cc1NC(=O)/C=C/CN1CCCCC1 [Dacomitinib] | 0 | 3.31 | 1.11 | 16.9 | 5.43 | 0.907 | 0 | 0 | 0
5 | O=C(O)c1ccc(-c2c[nH]c3ncc(-c4ccccc4)cc23)cc1C1CCCC1 | 0 | 0 | 0 | 0 | 0 | 0 | 0 | 0 | 0
6 | CC1(C)NC(=O)N(c2ccc([N+](=O)[O-])c(C(F)(F)F)c2)C1=O [Nilutamide] | 0 | 0 | 0 | 0 | 0 | 0 | 0 | 0 | 0
7 | Cn1c(CCCC(=O)O)nc2cc(N(CCCl)CCCl)ccc21 [Bendamustine] | 0 | 0 | 0 | 0 | 0 | 0 | 0 | 0 | 0
